ChEMBL document CHEMBL5236648, “Improved synthesis of deoxyalpinoid B and quantification of antileishmanial activity of deoxyalpinoid B and sulforaphane” (Bioorg Med Chem, 2023)
Active and inactive are the calls of the source. The calls are words filed in the database; no cut-off is given here.

Assays:
[1] = Cytotoxicity against human THP-1 cells assessed as cell viability at 5 uM incubated for 48 hrs by MTT assay relative to control; type: toxicity, cell-based; conditions: read-out: Activity
[2] = Cytotoxicity against human THP-1 cells assessed as cell viability at 10 uM incubated for 48 hrs by MTT assay relative to control; type: toxicity, cell-based; conditions: read-out: Activity
[3] = system: THP-1; assay: Cytotoxicity against human THP-1 cells assessed as reduction in cell viability at 50 to 100 uM incubated for 48 hrs by MTT assay; type: toxicity, cell-based; conditions: thp-1, 48 h, dose 50-100 µM
[4] = system: Leishmania donovani; assay: Antileishmanial activity against Leishmania donovani MHOM/IN/Dd8 promastigotes assessed as inhibition of promastigotes growth incubated for 48 hrs by MTT assay; type: functional, organism-based; conditions: MHOM/IN/Dd8, 48 h
[5] = system: Leishmania donovani; assay: Antileishmanial activity against Leishmania donovani MHOM/IN/Dd8 promastigotes assessed as promastigotes viability at 10 uM incubated for 48 hrs by MTT assay relative to control; type: functional
[6] = system: Leishmania donovani; assay: Antileishmanial activity against Leishmania donovani MHOM/IN/Dd8 promastigotes assessed as promastigotes viability at 50 uM incubated for 48 hrs by MTT assay relative to control; type: functional
[7] = system: Leishmania infantum; assay: Antileishmanial activity against Leishmania infantum MHOM/TN/80/IPT-1 promastigotes assessed as inhibition of promastigotes growth incubated for 48 hrs by MTT assay; type: functional, organism-based; conditions: MHOM/TN/80/IPT-1, 48 h
[8] = system: Leishmania donovani; assay: Induction of oxidative stress in Leishmania donovani MHOM/IN/Dd8 promastigotes assessed as increase in intracellular ROS level at 10 to 50 uM incubated for 24 hrs by H2DCFA fluorescent probe based flow cytometry analysis; type: functional, organism-based; conditions: dose 10-50 µM
[9] = system: Leishmania donovani; assay: Induction of oxidative stress in Leishmania donovani MHOM/IN/Dd8 promastigotes assessed as increase in mitochondrial superoxide level at 10 to 50 uM incubated for 24 hrs by Mito sox based flow cytometry analysis; type: functional, organism-based; conditions: dose 10-50 µM
[10] = system: Leishmania donovani; assay: Antileishmanial activity against Leishmania donovani MHOM/IN/Dd8 promastigotes infected in PMA-differentiated human THP-1 cells assessed as increase in heat shock protein A6 expression at 10 uM incubated for 18 hrs by RNA-seq analysis; type: functional, organism-based
[11] = system: Leishmania donovani; assay: Antileishmanial activity against Leishmania donovani MHOM/IN/Dd8 promastigotes infected in PMA-differentiated human THP-1 cells assessed as increase in heat shock protein A7 expression at 10 uM incubated for 18 hrs by RNA-seq analysis; type: functional, organism-based
[12] = system: Leishmania donovani; assay: Antileishmanial activity against Leishmania donovani MHOM/IN/Dd8 promastigotes infected in PMA-differentiated human THP-1 cells assessed as increase in Hes family transcription factor 7 gene expression at 10 uM incubated for 18 hrs by RNA-seq analysis; type: functional, organism-based
[13] = system: Leishmania donovani; assay: Antileishmanial activity against Leishmania donovani MHOM/IN/Dd8 promastigotes infected in PMA-differentiated human THP-1 cells assessed as activation of neuroactive ligand-receptor interactions at 10 uM incubated for 18 hrs by KEGG analysis; type: functional, organism-based
[14] = system: THP-1; assay: Induction of oxidative stress in human THP-1 cells assessed as increase in intracellular ROS level at 10 uM incubated for 1 hr by H2DCFA fluorescent probe based flow cytometry analysis; type: functional, cell-based
[15] = system: Leishmania donovani; assay: Antileishmanial activity against Leishmania donovani MHOM/IN/Dd8 metacyclic promastigotes infected in PMA-differentiated human THP-1 cells assessed as reduction in amastigotes formation at 10 uM incubated for 48 hrs by DAPI staining based inverted microscopic analysis; type: functional, organism-based
[16] = Cytotoxicity against human THP-1 cells assessed as cell viability at 50 to 100 uM incubated for 48 hrs by MTT assay relative to control
[17] = system: THP-1; assay: Induction of oxidative stress in human THP-1 cells assessed as increase in intracellular ROS level at 0.5 uM incubated for 1 hr by H2DCFA fluorescent probe based flow cytometry analysis; type: functional, cell-based
[18] = system: Leishmania donovani; assay: Antileishmanial activity against Leishmania donovani MHOM/IN/Dd8 metacyclic promastigotes infected in PMA-differentiated human THP-1 cells assessed as reduction in number of amastigotes per 100 cell at 0.5 uM incubated for 48 hrs by DAPI staining based inverted microscopic analysis; type: functional, organism-based

With `COc1cc(CC/C=C/C(=O)CCc2ccccc2)ccc1O` the viability at 48 h, 5 µM [1] was 79%, the viability at 48 h, 10 µM [2] was 76% and the Activity [3] was “Toxic”. For the same molecule, the IC50 [4] was 21.4 µM, the Activity [5] was 43% and the Activity [6] was <10%. For the same molecule, the IC50 [7] was 22 µM, the Activity [8] was “Active” and the Activity [9] was “Active”. The Activity [10] was “Active”, the Activity [11] was “Active” and the Activity [12] was “Active”. For the same molecule, the Activity [13] was “Active”, the Activity [14] was “Active” and the Activity [15] was “Active”.
In the case of `C[S+]([O-])CCCCN=C=S` (stereo unspecified) [SULFORAPHANE], the viability at 48 h, 5 µM [1] is reported as 84%, the viability at 48 h, 10 µM [2] is reported as 76% and the viability at 48 h, 100 µM [16] is reported as < 45%. For the same molecule, the IC50 [4] was 23.3 µM, the Activity [5] was 57% and the Activity [6] was <10%. The IC50 [7] was 16.5 µM, the Activity [13] was “Active” and the Activity [14] was “Active”.
For `C[C@@H]1[C@H](O)[C@@H](C)/C=C/C=C/C=C/C=C/C=C/C=C/C=C/[C@H](O[C@@H]2O[C@H](C)[C@@H](O)[C@H](N)[C@@H]2O)C[C@@H]2O[C@](O)(C[C@@H](O)C[C@@H](O)[C@H](O)CC[C@@H](O)C[C@@H](O)CC(=O)O[C@H]1C)C[C@H](O)[C@H]2C(=O)O`, the Activity [17] was “inactive” and the Activity [18] was “Active”.
